Laboratory results: PubChem BioAssay AID330 (DTP/NCI, 2004)
Where “and” joins values, the source holds several entries; their conditions need not be identical. Equal entries are not always repeated. Inconclusive results and toxic doses are left out. The calls were made as follows: active = survival T/C of 150% or more; inactive = T/C below 125% in these data.

Test system: P388 leukemia ip, CD2F1 mice, survival T/C
Assay: NCI In Vivo Anticancer Drug Screen. Data for tumor model P388 Leukemia (intraperitoneal) in CD2F1 (CDF1) mice
Conditions: endpoint: median survival time, higher = longer survival
In short: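 Mice carrying the transplanted tumor received test compound or vehicle. Survival was recorded in each group, and the value is the treated-group measurement divided by that of the vehicle-treated control group.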

[1] = dose: 50.0 mg/kg/injection, schedule: Q01DX009 (ip), vehicle: saline
[2] = dose: 100.0 mg/kg/injection, schedule: Q01DX009 (ip), vehicle: saline
[3] = dose: 200.0 mg/kg/injection, schedule: Q01DX009 (ip), vehicle: saline
[4] = dose: 3.12 mg/kg/injection, schedule: Q01DX009 (ip), vehicle: Klucel (hydroxypropylcellulose) (HPC)
[5] = dose: 6.25 mg/kg/injection, schedule: Q01DX009 (ip), vehicle: Klucel (hydroxypropylcellulose) (HPC)
[6] = dose: 12.5 mg/kg/injection, schedule: Q01DX009 (ip), vehicle: Klucel (hydroxypropylcellulose) (HPC)
[7] = dose: 25.0 mg/kg/injection, schedule: Q01DX009 (ip), vehicle: Klucel (hydroxypropylcellulose) (HPC)

Measured: T/C

CCCCCCC1C/C(=C/N(C)C)C(=O)O1 (configuration not stated)
inactive: dose: 60.0 mg/kg/injection, schedule: Q01DX005 (ip), vehicle: Klucel (hydroxypropylcellulose) (HPC) 92 % of control | dose: 120.0 mg/kg/injection, schedule: Q01DX005 (ip), vehicle: Klucel (hydroxypropylcellulose) (HPC) 104 % of control | dose: 240.0 mg/kg/injection, schedule: Q01DX005 (ip), vehicle: Klucel (hydroxypropylcellulose) (HPC) 92 % of control

C/C(=N\N1CN(C(C)C(=O)O)P(N(CCO)CCO)N=C1N)c1cccs1 (configuration not stated)
inactive: dose: 7.5 mg/kg/injection, schedule: Q01DX005 (ip), vehicle: saline 98 % of control | dose: 15.0 mg/kg/injection, schedule: Q01DX005 (ip), vehicle: saline 101 % of control | dose: 30.0 mg/kg/injection, schedule: Q01DX005 (ip), vehicle: saline 98 % of control

O=S(=O)(O)c1c(O)ccc2nc3ccccc3nc12
inactive: dose: 12.5 mg/kg/injection, schedule: Q01DX009 (ip), vehicle: saline 99 % of control and 97 % of control | dose: 25.0 mg/kg/injection, schedule: Q01DX009 (ip), vehicle: saline 98 % of control and 96 % of control | [1] 103 % of control and 104 % of control and 106 % of control | [2] 98 % of control | [3] 96 % of control

c1ccc(C2(N3CCOCC3)CSC2)cc1
inactive: dose: 100.0 mg/kg/injection, schedule: Q04DX002 (ip), vehicle: saline with Tween-80 95 % of control | dose: 200.0 mg/kg/injection, schedule: Q04DX002 (ip), vehicle: saline with Tween-80 98 % of control | dose: 400.0 mg/kg/injection, schedule: Q04DX002 (ip), vehicle: saline with Tween-80 98 % of control

O=C1CNC(=O)CN1
inactive: [1] 96 % of control | [2] 90 % of control | dose: 100.0 mg/kg/injection, schedule: Q04DX003 (ip), vehicle: saline 100 % of control | [3] 97 % of control | dose: 200.0 mg/kg/injection, schedule: Q04DX003 (ip), vehicle: saline 91 % of control | dose: 400.0 mg/kg/injection, schedule: Q04DX003 (ip), vehicle: saline 100 % of control

CSC(=S)SC(SC)S(C)(=O)=O (configuration not stated)
inactive: [4] 103 % of control | [5] 112 % of control | [6] 110 % of control and 117 % of control | [7] 93 % of control

CN1C(c2ccccc2)C2CCCC(C1c1ccccc1)C21NC(=O)NC1=O (configuration not stated)
inactive: dose: 100.0 mg/kg/injection, schedule: Q01DX001 (ip), vehicle: saline with Tween-80 97 % of control | dose: 200.0 mg/kg/injection, schedule: Q01DX001 (ip), vehicle: saline with Tween-80 94 % of control | dose: 400.0 mg/kg/injection, schedule: Q01DX001 (ip), vehicle: saline with Tween-80 94 % of control

N#CC[N+]1(Cc2ccccn2)CCCC1
inactive: dose: 60.0 mg/kg/injection, schedule: Q01DX005 (ip), vehicle: saline 101 % of control | dose: 120.0 mg/kg/injection, schedule: Q01DX005 (ip), vehicle: saline 108 % of control

COc1ccc(OC)c2c1nc(CBr)n2C
inactive: dose: 16.25 mg/kg/injection, schedule: Q01DX005 (ip), vehicle: DMSO 104 % of control | dose: 32.5 mg/kg/injection, schedule: Q01DX005 (ip), vehicle: DMSO 93 % of control

O=C(Nc1cccc2cccnc12)C1=C(Nc2cccc3cccnc23)CCC1
inactive: dose: 6.25 mg/kg/injection, schedule: Q01DX009 (ip), vehicle: saline with Tween-80 107 % of control | dose: 12.5 mg/kg/injection, schedule: Q01DX009 (ip), vehicle: saline with Tween-80 100 % of control | dose: 25.0 mg/kg/injection, schedule: Q01DX009 (ip), vehicle: saline with Tween-80 98 % of control | dose: 50.0 mg/kg/injection, schedule: Q01DX009 (ip), vehicle: saline with Tween-80 92 % of control | dose: 200.0 mg/kg/injection, schedule: Q01DX009 (ip), vehicle: saline with Tween-80 98 % of control

COC(=O)c1ccc(-c2cc(Cl)c3cc(S(=O)(=O)F)ccc3n2)cc1
inactive: dose: 100.0 mg/kg/injection, schedule: Q04DX003 (ip), vehicle: saline with Tween-80 95 % of control | dose: 200.0 mg/kg/injection, schedule: Q04DX003 (ip), vehicle: saline with Tween-80 90 % of control | dose: 400.0 mg/kg/injection, schedule: Q04DX003 (ip), vehicle: saline with Tween-80 90 % of control

OCCCCc1nccc2c1[nH]c1ccccc12
inactive: [6] 106 % of control | [7] 106 % of control | dose: 50.0 mg/kg/injection, schedule: Q01DX009 (ip), vehicle: Klucel (hydroxypropylcellulose) (HPC) 104 % of control | dose: 100.0 mg/kg/injection, schedule: Q01DX009 (ip), vehicle: Klucel (hydroxypropylcellulose) (HPC) 95 % of control

O=c1ccs[nH]1
inactive: [4] 100 % of control | [5] 102 % of control and 104 % of control and 117 % of control | [6] 102 % of control and 114 % of control and 124 % of control | [7] 100 % of control and 90 % of control
